{"source": "patent US20260191818A1", "about": "(University of South Carolina, priority 2022, published 2026)", "key": {"[1]": {"tested_on": "STAT3, P65/NFκβ, P38/MAPK", "test": "Western blot of rectus femoris, inflammatory signaling proteins", "type": "in vivo, CD2F1 mice", "conditions": "C26+5FU+Quer vs C26+5FU", "procedure": "(§1) Protein isolation and western blotting was completed similar to what has been previously described. See, Sougiannis, A. T., et al., Impact of weight loss and partial weight regain on immune cell and inflammatory markers in adipose tissue in male mice. J Appl Physiol (1985), 2020. 129(4): p. 909-919. The rectus femoris (RF) was teased from the other quadriceps muscles, cut in half (proximal/distal), snap frozen in liquid nitrogen, and stored at −80° C. The distal RF was homogenized in Mueller Buffer (50 mM Hepes, 0.1% Triton-x, 4 mM EGTA, 10 mM EDTA, 15 mM Na4P207, 100 mM β-glycerophosphate, 25 mM NaF, and 5 mM NaVO4, with protease inhibitor cocktail) using a bead homogenizer at 4° C. Samples were centrifuged and the supernatant was collected and diluted with a diluent buffer (50% Glycerol, 50 mM Na4P2O7, 2.5 mM EGTA, and 1 mM β-mercaptoethanol with protease inhibitor cocktail). Protein concentrations were determined using the Bradford standard protein assay and protein integrity was confirmed with SDS-PAGE and amido black staining. Between 10-50 μg of muscle protein homogenate was separated via SDS-PAGE and transferred to a PVDF membrane. Membranes were stained with Ponceau Red to confirm even loading and transfer efficiency. Membranes were then washed with tris buffered saline with 0.1% Tween (TBST) before blocking for 1 h at room temp with 5% milk TBST. Membranes were then incubated in primary anti-body (Table 1, see FIG. 8) overnight at 4° C. under gentle agitation. Membranes were then washed 3×5 min and incubated with the appropriate (anti-mouse or rabbit) HRP-linked secondary in 5% milk TBST for 1 h at room temperature. After a final 3×5 min wash membranes were incubated in chemiluminescent HRP substrate before visualization with a Syngene G:box. Images were then scanned, and relative protein expression was determined with ImageJ. Investigator was blinded to sample loading scheme and images were cropped after analysis for representation. All samples (full Ns) were run together for each protein. Dotted lines indicate where gels were cropped."}, "[2]": {"tested_on": "C26 tumor-bearing mice", "test": "C26 tumor-bearing mice given 5FU (cancer and chemotherapy-induced cachexia): body, tumor and tissue weights, food intake", "type": "in vivo, CD2F1 mice", "procedure": "Male (n=20) CD2F1 (CD2F1) hybrid mice were purchased from Charles River Laboratory (Raleigh, NC) at 10 weeks of age. Mice arrived at our facilities and were given AlN76 diet and allowed to acclimate to the new facilities and purified diet for 4 weeks. Mice were kept in ventilated cages (5 per cage), on a 12:12 h light/dark cycle, in a humidity and temperature control room (~22° C.) and given ad libitum access to water and food. Animal handling and experiments were performed to minimize pain and discomfort. […] Control mice were non-tumor-bearing mice given PBS i.p. and propylene glycol p.o. as vehicle controls. Body weights were measured daily. Food weights per cage were measured daily and average food intake was calculated by the difference in food weight between days. […] Hind limb muscles and select organs were excised, weighed, and snap frozen in liquid nitrogen while mice were under sedation (2% Isoflurane, 2 L/min O2). All procedures involving animals were reviewed and approved by the Institutional Animal Care and Usage Committee (IACUC) at the University of South Carolina in accordance with the American Association for Laboratory Animal Science. C26 (colon 26 adenocarcinoma) cells were gifted from Dr. Andrea Bonetto's laboratory and grown in complete DMEM (10% fetal bovine serum, 1% penicillin/streptomycin). Cells were split at 70% confluency and passage 3 was used for cell implantation. On Day 0, CD2F1 mice were given a subcutaneous injection of 1×10^6 C26 cells in the subscapular area as previously described. See, Bonetto, A., et al., The Colon-26 Carcinoma Tumor-bearing Mouse as a Model for the Study of Cancer Cachexia. J Vis Exp, 2016(117). Tumors were palpable at Day 8 in all C26 tumor-bearing mice. […] VWR; CAS #:51-21-8) was solubilized in warmed phosphate buffered saline (PBS) at 3.0 mg/mL, sterile filtered with a 0.2 μm filter and administered at the beginning of the light cycle (0700) via i.p. injection to mice with established tumor (day 11 after C26 implantation). […] Cancer Biol Ther, 2022. 23(1): p. 1-15; and […]., et al., The Acute Effects of 5 Fluorouracil on Skeletal Muscle Resident and Infiltrating Immune Cells in Mice. […] Data were analyzed using Prism 8 statistical software (GraphPad Software, CA, USA). […] The healthy controls are shown as a reference point but were not included in statistical analysis. Additionally, the C26 alone group was not included in analysis, but is shown as a reference point for tumor growth without chemotherapy intervention. Data are presented as the mean±SEM and the level of significance was set up at p<0.05."}, "[3]": {"tested_on": "ApcMin/+ model of intestinal cancer", "conditions": "25 mg/kg of quercetin; cited from earlier work"}, "[4]": {"tested_on": "mitochondrial complexes I-V, VDAC, cytochrome c", "test": "Western blot of rectus femoris, mitochondrial content proteins", "type": "in vivo, CD2F1 mice", "conditions": "C26+5FU+Quer vs C26+5FU; p=0.01", "procedure": "as §1, with “Membranes were then washed with tris buffered saline with 0.1% Tween (TBST) before blocking for 1 h at room temp with 5% milk TBST. Membranes were then incubated in primary anti-body (Table 1, see FIG. 8) overnight at 4° C. under gentle agitation. Membranes were then washed 3×5 min and incubated with the appropriate (anti-mouse or rabbit) HRP-linked secondary in 5% milk TBST for 1 h at room temperature. After a final 3×5 min wash membranes were incubated in chemiluminescent HRP substrate before visualization with a Syngene G:box.” left out, “Investigator was blinded to sample loading scheme and images were cropped after analysis for representation. All samples (full Ns) were run together for each protein. Dotted lines indicate where gels were cropped.” left out"}}}
{"smiles": "O=c1c(O)c(-c2ccc(O)c(O)c2)oc2cc(O)cc(O)c12", "note": "[quercetin, 3,4,5,7-pentahydroxylflavone]", "values": [{"measurement": "change in p/tP65", "setting": "[1]; increased, p=0.03", "value": 41.9, "unit": "%"}, {"measurement": "change in phospho:total P38", "setting": "[1]; p=0.19", "value": "−30.0", "unit": "%"}, {"measurement": "change in phospho:total (p/t) STAT3", "setting": "[1]; p=0.36", "value": 33.2, "unit": "%"}, {"measurement": "greater EDL weight", "setting": "[2]; C26+5FU+Quer vs C26+5FU, p=0.039", "value": 23.7, "unit": "%"}, {"measurement": "greater gonadal fat pad weight", "setting": "[2]; C26+5FU+Quer vs C26+5FU, p=0.04", "value": 50.0, "unit": "%"}, {"measurement": "greater gastrocnemius weight", "setting": "[2]; C26+5FU+Quer vs C26+5FU, p=0.055", "value": 13.9, "unit": "%"}, {"measurement": "other measured muscle weights", "setting": "[2]; C26+5FU+Quer vs C26+5FU, p=0.09-0.15", "value": "did not achieve statistically significant differences"}, {"measurement": "greater RF (rectus femoris) weight", "setting": "[2]; C26+5FU+Quer vs C26+5FU, quercetin 50 mg/kg p.o., p=0.02", "value": 14.4, "unit": "%"}, {"measurement": "impact on body weight loss", "setting": "[2]; mice given 5FU 30 mg/kg lean mass i.p., quercetin 50 mg/kg p.o. vs propylene glycol, daily from Day 11", "value": "no apparent impact"}, {"measurement": "muscle mass and strength", "setting": "[3]", "value": "preserved muscle mass and strength"}, {"measurement": "change in expression of cytochrome c", "setting": "[4]", "value": 48.9, "unit": "%"}]}
